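These data come from cells grown in 96-well plates and exposed to compound for 48 hours at five concentrations. Here, GI50 denotes the concentration required for 50% inhibition of growth.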 Activity calls are given as the source filed them. Cut-off read from the data, not from the text of the source: active = GI50 up to about 1.1 µM and inactive = higher.
Columns and labels:
Test in all cases: NCI tumour cell line growth inhibition, 48 h
DLD-1 = system: DLD-1
RXF 631 = system: RXF 631
HOP-18 = system: HOP-18
LXFL 529 = system: LXFL 529
DMS-114 = system: DMS-114
SNB-78 = system: SNB-78
M19-MEL = system: M19-MEL
DMS-273 = system: DMS-273
XF498 = system: XF498

Measured: GI50

Cc1nc2ccc(NCCN(C)C)c3c(=O)c4ccccc4n1c23
inactive: DLD-1 2.74 µM | RXF 631 1.74 µM | HOP-18 3.2 µM | LXFL 529 6.56 µM | DMS-114 5.52 µM | SNB-78 6.79 µM | M19-MEL 5.9 µM

CC1(n2nc(-c3ccccc3)n(-c3ccccc3)c2=O)CSC1
inactive: DLD-1 > 100 µM | LXFL 529 > 100 µM | DMS-114 69.5 µM | DMS-273 82.4 µM | XF498 58.9 µM | SNB-78 > 100 µM | M19-MEL > 100 µM

Clc1ccc2c(Cl)nc(-c3ccccc3)nc2c1
inactive: DLD-1 27.6 µM | LXFL 529 26.9 µM | DMS-114 18.6 µM | DMS-273 36.7 µM | XF498 3.88 µM | SNB-78 11.4 µM | M19-MEL 47.1 µM

C=C1C(=O)O[C@@H]2C[C@]3(C)[C@@H](C[C@H]12)[C@](C)(O)CC[C@@H]3O
inactive: DLD-1 41 µM | RXF 631 87.5 µM | LXFL 529 44 µM | DMS-114 39.2 µM | DMS-273 52.8 µM | XF498 36.5 µM | SNB-78 47.8 µM | M19-MEL 43.9 µM

CNC(=O)OCc1nc(SC)n(C)c1COC(=O)NC
inactive: DLD-1 183 µM | HOP-18 232 µM | DMS-114 80.5 µM | DMS-273 86.5 µM | XF498 253 µM | SNB-78 68.4 µM | M19-MEL 182 µM

O=Cc1cn(C(=O)c2ccccc2)c2ccccc12
inactive: DLD-1 > 100 µM | LXFL 529 51.3 µM | DMS-114 60.1 µM | DMS-273 > 100 µM | SNB-78 36.9 µM | M19-MEL > 100 µM

COc1cc(OC)c(C#N)c(OC)c1C
inactive: DLD-1 > 100 µM | LXFL 529 > 100 µM | DMS-114 > 100 µM | DMS-273 > 100 µM | XF498 5.62 µM | SNB-78 > 100 µM | M19-MEL > 100 µM

CN(C)CCC(/C=C/c1ccccc1)=N\Nc1c(F)c(F)c(F)c(F)c1F
inactive: DLD-1 > 100 µM | HOP-18 44.1 µM | LXFL 529 77.8 µM | DMS-114 21.7 µM | DMS-273 36.8 µM | SNB-78 50.9 µM | M19-MEL 39.4 µM

O=P(Nc1cccc(Cl)c1)(Oc1ccccc1)N(CCCl)CCCl (centres undefined)
inactive: DLD-1 14.4 µM | HOP-18 24.9 µM | LXFL 529 11.7 µM | DMS-114 12.7 µM | DMS-273 13.6 µM | SNB-78 18.3 µM | M19-MEL 18 µM

COc1ccc(C2C(Cl)C(=O)N2NC(=O)c2ccc(N)cc2)cc1 (centres undefined)
inactive: DLD-1 > 100 µM | LXFL 529 > 100 µM | DMS-114 > 100 µM | DMS-273 > 100 µM | XF498 > 100 µM | SNB-78 > 100 µM | M19-MEL > 100 µM

Cc1ccc2c(c1CCCC(C)(C)O)C(=O)C(O)=C(C(C)C)C2=O
inactive: DLD-1 > 100 µM | HOP-18 > 100 µM | LXFL 529 62.1 µM | DMS-114 39.1 µM | DMS-273 95.5 µM | M19-MEL 96.6 µM

COC(=O)C(Cc1nc2ccccc2nc1O)C(=O)C(=O)Nc1ccc(F)cc1 (centres undefined)
inactive: DLD-1 32.9 µM | RXF 631 32.7 µM | HOP-18 > 100 µM | LXFL 529 15.7 µM | DMS-114 22.9 µM | DMS-273 48.1 µM | XF498 54 µM | M19-MEL 46.7 µM

COc1ccc(/C=C/C(=N\NC(=O)c2ccccc2)c2sc(Nc3ccc([N+](=O)[O-])cc3)nc2C)cc1OC
inactive: DLD-1 6.27 µM | HOP-18 27.7 µM | LXFL 529 7.67 µM | DMS-114 15.1 µM | DMS-273 12.5 µM | XF498 10.3 µM | SNB-78 8.55 µM | M19-MEL 12.6 µM

Cc1ccc(C(=O)CC2=Nc3nnc(CCCCCCCc4nnc5n4C(=O)C(CC(=O)c4ccc(C)cc4)=N5)n3C2=O)cc1
inactive: DLD-1 > 100 µM | RXF 631 > 100 µM | HOP-18 > 100 µM | LXFL 529 > 100 µM | DMS-114 > 100 µM | XF498 > 100 µM | M19-MEL > 100 µM

CC1(c2ccc(Cl)cc2)C2C(=O)NC(=O)C1C(=O)NC2=O (centres undefined)
inactive: DLD-1 > 100 µM | LXFL 529 > 100 µM | DMS-273 > 100 µM | XF498 > 100 µM | SNB-78 > 100 µM | M19-MEL > 100 µM

CCOC(=O)CC(=O)ON(C)C(=O)Cc1ccccc1
inactive: DLD-1 > 100 µM | RXF 631 > 100 µM | LXFL 529 > 100 µM | DMS-114 > 100 µM | SNB-78 > 100 µM | M19-MEL > 100 µM

C[P+](C)(C)c1ccccc1
inactive: DLD-1 > 100 µM | RXF 631 > 100 µM | HOP-18 > 100 µM | LXFL 529 > 100 µM | DMS-114 > 100 µM | DMS-273 > 100 µM | XF498 > 100 µM | M19-MEL > 100 µM

CCOC(OC1=C(C#N)CCCC1)C(CC)[Se]c1ccccc1[N+](=O)[O-] (centres undefined)
inactive: DLD-1 17.9 µM | HOP-18 26.5 µM | LXFL 529 26.5 µM | DMS-114 15.7 µM | DMS-273 20.9 µM | XF498 30.2 µM | SNB-78 25.5 µM | M19-MEL 19.1 µM

Cc1cc(N(CCC#N)CCC#N)ccc1/N=N/c1cccc(C(=O)O)c1
inactive: DLD-1 > 100 µM | RXF 631 > 100 µM | HOP-18 > 100 µM | LXFL 529 > 100 µM | DMS-114 > 100 µM | DMS-273 > 100 µM | XF498 52.4 µM | SNB-78 > 100 µM | M19-MEL > 100 µM

CC(C)CCCCCCCCCCCCC(=O)NCC(=O)NC1C(C)OC(Nc2ncnc3c2ncn3C)C(O)C1O (centres undefined)
inactive: DLD-1 12.1 µM | HOP-18 2.48 µM | DMS-114 7.82 µM | DMS-273 1.81 µM | XF498 3.56 µM | SNB-78 4.72 µM | M19-MEL 11.4 µM

COc1ccc(/C(Cl)=C(\CN(C)C)c2ccc(OC)c(OC)c2)cc1OC.[B]
inactive: DLD-1 > 100 µM | HOP-18 > 100 µM | LXFL 529 > 100 µM | DMS-273 2.34 µM | SNB-78 10.1 µM

CCCCCCCCCCCC(=O)OC[C@H](C[As](=O)(O)O)OC(=O)CCCCCCCCCCC
inactive: DLD-1 13.2 µM | HOP-18 7.29 µM | LXFL 529 3.82 µM | DMS-114 1.95 µM | DMS-273 3.98 µM | XF498 10.1 µM | SNB-78 2.94 µM | M19-MEL 8.18 µM

Cc1cc(O)nc(NNC(C#N)c2cccc(O)c2)n1 (centres undefined)
inactive: DLD-1 > 100 µM | HOP-18 86.7 µM | LXFL 529 > 100 µM | DMS-114 > 100 µM | DMS-273 > 100 µM | SNB-78 > 100 µM | M19-MEL > 100 µM

COc1ccc(C2Oc3cc(OC)c(O)cc3[C@@H]2C)cc1 (some centres undefined)
inactive: DLD-1 19.9 µM | HOP-18 5.05 µM | LXFL 529 17.5 µM | DMS-114 18.7 µM | DMS-273 29.4 µM | XF498 16.9 µM | SNB-78 > 100 µM | M19-MEL > 10 µM

O=C(c1ccc(O)cc1O)C1C(c2ccc(O)cc2)OC(c2ccc(O)cc2)C1C(=O)c1ccc(O)cc1O (centres undefined)
inactive: DLD-1 44.1 µM | LXFL 529 17.3 µM | DMS-273 16 µM | XF498 15.5 µM | SNB-78 19.1 µM | M19-MEL 19.6 µM

CCC1(c2ccc(N)cc2)CCC(=O)NC1=O (centres undefined) [AMINOGLUTETHIMIDE]
inactive: DLD-1 3230 µM | HOP-18 3120 µM | DMS-114 1530 µM | DMS-273 2560 µM | XF498 1550 µM | SNB-78 2170 µM | M19-MEL 2210 µM

Reference: ChEMBL document CHEMBL1201862, “PubChem BioAssay data set” (2004)
